Values after ≈ are worked out from the molar mass of the structure shown.
Legend:
Streptococcus pneumoniae = assay: In vitro antibacterial activity against penicillin susceptible Streptococcus pneumoniae UC19912 (PSSP); format: functional
Haemophilus influenzae = assay: In vitro antibacterial activity against ampicillin resistant Haemophilus influenzae 30063 (AMPR b-lactamase+); format: functional
Staphylococcus aureus [1] = assay: In vitro antibacterial activity against methicillin susceptible Staphylococcus aureus UC19213 (MSSA); (SA1); format: functional
[2] = tested on: Staphylococcus epidermidis; assay: In vitro antibacterial activity against methicillin resistant Staphylococcus epidermis US 12084 (MRSE); format: functional
Moraxella catarrhalis = assay: In vitro antibacterial activity against Moraxella catarrhalis 30607 (b-lactamase+).; format: functional
Enterococcus faecalis = assay: In vitro antibacterial activity against vancomycin susceptible Enterococcus faecalis UC19217 (VSEF); format: functional
Staphylococcus aureus [3] = assay: In vitro antibacterial activity against Staphylococcus aureus UC12673 (SA2); format: functional
[4] = Steady state volume distribution (Vss) of compound(9.83 mg/kg) after iv administration was determined in Sprague-Dawley rat; format: ADME, organism-based; conditions: in vivo, read-out: Vss
[5] = Half life of compound (19.2 mg/kg) after po administration was determined in Sprague-Dawley rat; format: ADME, organism-based; conditions: in vivo
[6] = Maximum plasma concentration (Cmax) of compound (19.2 mg/kg) after po administration was determined Sprague-Dawley rat; format: ADME, organism-based; parameters: dose 19.2 mg/kg, route oral
[7] = Clearance (Cl) of compound (9.83 mg/kg) after iv administration was determined in Sprague-Dawley rat; format: ADME, organism-based; conditions: in vivo
[8] = Tmax of compound (19.2 mg/kg) after po administration was determined in Sprague-Dawley rat; format: ADME, organism-based; conditions: in vivo
[9] = Half life of compound (9.83 mg/kg) after iv administration was determined in Sprague-Dawley rat; format: ADME, organism-based; conditions: in vivo
[10] = Maximum plasma concentration (Cmax) of compound (9.83 mg/kg) after iv administration was determined Sprague-Dawley rat; format: ADME, organism-based; parameters: dose 9.83 mg/kg, route intravenous
[11] = Oral bioavailability of compound (19.2 mg/kg) after po administration was determined in Sprague-Dawley rat; format: ADME, organism-based; conditions: in vivo
Mus musculus = assay: In vivo efficacy of compound against Staphylococcus aureus UC9213 was determined after peroral administration in mouse; format: functional; conditions: po

SMILES	MIC (Streptococcus pneumoniae) [µg/mL]	MIC (Haemophilus influenzae) [µg/mL]	MIC (Staphylococcus aureus [1]) [µg/mL]	MIC [2] [µg/mL]	MIC (Moraxella catarrhalis) [µg/mL]	MIC (Enterococcus faecalis) [µg/mL]	MIC (Staphylococcus aureus [3]) [µg/mL]	Vd [4] [L/kg]	half-life [5] [min]	Cmax [6] [ng/mL]	clearance [7] [mL/min/kg]	Tmax [8] [min]	half-life [9] [min]	Cmax [10] [ng/mL]	bioavailability [11] [%]	ED50 (Mus musculus) [mg/kg]
CC(=O)NC[C@H]1CN(c2ccc3c(c2)CC[C@@H](C)N3C=O)C(=O)O1	< 0.5	32 (≈ 96.6 µM)	2 (≈ 6.04 µM)	< 0.5	4 (≈ 12.1 µM)	1 (≈ 3.02 µM)	1 (≈ 3.02 µM)	–	–	–	–	–	–	–	–	–
C/C(S)=N/C[C@H]1CN(c2ccc3c(c2)OC[C@@H](C)N3C=O)C(=O)O1	0.5 (≈ 1.43 µM)	32 (≈ 91.6 µM)	< 0.5	< 0.5	2 (≈ 5.72 µM)	1 (≈ 2.86 µM)	< 0.5	–	–	–	–	–	–	–	–	–
CC(=O)NC[C@H]1CN(c2ccc3c(c2)C[C@H](C)N3C=O)C(=O)O1	4 (≈ 12.6 µM)	> 64	8 (≈ 25.2 µM)	4 (≈ 12.6 µM)	> 64	16 (≈ 50.4 µM)	8 (≈ 25.2 µM)	–	–	–	–	–	–	–	–	–
CC(=O)NC[C@H]1CN(c2ccc3c(c2)C[C@H](C)N3C(=O)CO)C(=O)O1	1 (≈ 2.88 µM)	> 16	8 (≈ 23 µM)	2 (≈ 5.76 µM)	16 (≈ 46.1 µM)	8 (≈ 23 µM)	8 (≈ 23 µM)	–	–	–	–	–	–	–	–	–
C/C(S)=N/C[C@H]1CN(c2ccc3c(c2)C[C@@H](C)N3C=O)C(=O)O1	< 0.5	2 (≈ 6 µM)	< 0.5	< 0.5	1 (≈ 3 µM)	< 0.5	< 0.5	0.64	36.6	1130	28.9	30	6	13600	30.8	7.5
CC(=O)NC[C@H]1CN(c2ccc3c(c2)OC[C@H](C)N3C=O)C(=O)O1	< 4	64 (≈ 192 µM)	8 (≈ 24 µM)	< 4	32 (≈ 96 µM)	32 (≈ 96 µM)	8 (≈ 24 µM)	–	–	–	–	–	–	–	–	–
CC(=O)NC[C@H]1CN(c2ccc3c(c2)C[C@@H](C)N3)C(=O)O1	4 (≈ 13.8 µM)	> 64	8 (≈ 27.6 µM)	4 (≈ 13.8 µM)	> 61	16 (≈ 55.3 µM)	8 (≈ 27.6 µM)	–	–	–	–	–	–	–	–	–
CC(=O)NC[C@H]1CN(c2ccc3c(c2)C[C@H](C)N3)C(=O)O1	–	> 64	32 (≈ 111 µM)	16 (≈ 55.3 µM)	> 64	64 (≈ 221 µM)	32 (≈ 111 µM)	–	–	–	–	–	–	–	–	–
